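Compound exposure: 48 hours, 5 concentrations, 96-well plates. GI50 is the concentration that inhibits growth by half. The concentration for full growth arrest is given as TGI.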 Bounds are passed on as bounds.

12 compounds from PubChem BioAssay (NCI) can be followed below.

Holding throughout (assay): NCI tumour cell line growth inhibition, 48 h
The test system of assay [1] is SR leukemia.
The test system of assay [2] is A549 NSCLC.
For assay [3], the system named is SW-620 colon.
Assay [4] relates to EKVX NSCLC.
Assay [5] deals with K-562 leukemia.
For assay [6], the system named is SF-539 CNS.
In assay [7] the test system is MDA-MB-435.
The test system of assay [8] is NCI-H522 lung.
The subject of assay [9] is SNB-19 CNS.
The subject of assay [10] is SNB-75 CNS.
Assay [11] concerns HL-60(TB) leukemia.

For the compound `COc1ccc2c(c1)-c1nc(=S)n(CCN(C)C)c3ccc([N+](=O)[O-])c(c13)N2`, the TGI in assay [1] is 2.07 µM; in assay [2], 2.28 µM; in [3] it was 3.07 µM; in assay [4], 7.29 µM; in assay [5], 2.13 µM; in [6] it was 2.5 µM. Also, the TGI worked out at 7.82 µM in assay [7], 2.04 µM in assay [8], 3.87 µM in assay [9] and 2.7 µM in [10].

As for `O=C(O)Cn1c[n+](NC(=O)Cc2ccccc2)cn1`, the TGI in assay [1], in assay [2], in assay [3], in [4], in [5] and in [6] was greater than 10 µM each time. Moreover, the TGI in assay [7], in assay [8], in assay [9] and in assay [10] was greater than 10 µM each time.

`Clc1sc(Cl)c2c1[C@H](Br)C[C@@H]2Cl`: the TGI in assay [1] is 39.5 µM; in assay [2], greater than 100 µM; in [3], 45.6 µM; in assay [4], greater than 100 µM; in [5], greater than 100 µM; in assay [6], 37.1 µM. Besides, the TGI is 40.8 µM in assay [7], 33.5 µM in [8], greater than 100 µM in [9] and greater than 100 µM in [10].

Consider `COc1cc2c3cc1Oc1cc(ccc1O)C[C@@H]1c4c(cc(OC)c(O)c4Oc4ccc(cc4)C[C@@H]3[N+](C)(C)CC2)CC[N+]1(C)C`, for which the TGI in assay [1] is greater than 100 µM; in assay [2], greater than 100 µM; in assay [3] it was greater than 100 µM; in [4], greater than 100 µM; in assay [5] it was greater than 100 µM; in assay [6] it was 28.3 µM. In addition, the TGI in [11], in assay [7], in assay [8] and in assay [9] was greater than 100 µM each time.

Take `CC1=NN(c2cccc(Cl)c2)C2(C1=Cc1ccc(N(C)C)cc1)C(Cl)C(=O)N2c1nc2ccccc2s1` (configuration not stated): the TGI in [1], in assay [3], in assay [4], in [5], in assay [6] and in assay [11] was greater than 100 µM throughout. The values for the TGI in [7] and in [8] were 72.3 µM and 43.1 µM, respectively.

On to `COc1ccc(C(=O)/C=C/c2ccc(OCCCCCCCCCCOc3ccc(/C=C/C(=O)c4ccc(OC)c(OC)c4)cc3)cc2)c(OC)c1`, for which the TGI in assay [1], in [2], in assay [3], in assay [4], in assay [5] and in [6] was greater than 100 µM throughout. In addition, the TGI in [11], in [7], in assay [9] and in assay [10] was greater than 100 µM throughout.

Regarding `Cn1c2ccccc2c2c3c(=O)[nH][nH]c(=O)c3c3c4ccccc4n(C)c3c21`, the TGI is 0.252 µM in [1]; greater than 100 µM in assay [2]; greater than 100 µM in assay [3]; greater than 100 µM in assay [4]; greater than 100 µM in assay [5]; greater than 100 µM in assay [6]. Also, the TGI in assay [7], in assay [8], in [9] and in assay [10] was greater than 100 µM throughout.

On to `CO[C@H](C)[C@](O)(C(=O)OCC1=CCN2CC[C@@H](O)[C@H]12)C(C)C`, for which the TGI in assay [1], in assay [2], in [3], in [4], in [5] and in assay [6] was greater than 100 µM in each case. For the same compound, the TGI in assay [7], in assay [8], in [9] and in [10] was greater than 100 µM each time.

Take `O=C1c2cc3c(cc2-c2c1c1cc(F)c(F)cc1c(=O)n2C[C@H](O)CO)OCO3`: the TGI was greater than 100 µM in [1]; 1.12 µM in assay [2]; 1.98 µM in [3]; 8.77 µM in assay [4]; greater than 100 µM in assay [5]; 0.14 µM in assay [6]. Moreover, the TGI in assay [11] was greater than 100 µM; in assay [7], 0.422 µM; in [8], 0.48 µM. The GI50 in assay [2] was 0.069 µM; in assay [3] it was 0.0431 µM; in assay [4] it was 0.652 µM; in assay [5], 0.069 µM; in assay [6], 0.0288 µM; in assay [11], 0.0426 µM. Moreover, the GI50 in [7] is 0.125 µM; in assay [8], 0.0232 µM.

With `C=C1C[C@@H]2CC[C@@]34CC5O[C@H]6C(O[C@H]7CC[C@H](CC(=O)O[C@@H]8[C@@H](C)[C@@H]9O[C@@H]%10C[C@]%11(C[C@@H]%12O[C@]%13(C[C@H](C)[C@@H]%14O[C@@H]%15CC(C(COC(C)=O)OC(C)=O)O[C@@H]%15C[C@@H]%14O%13)C[C@H](C)[C@@H]%12O%11)O[C@@H]%10C[C@@H]9O[C@H]8CC8O[C@@H](CC[C@@H]1O2)C[C@@H](C)C8(O)CO)O[C@@H]7[C@@H]6O3)[C@H]5O4` (some centres not stated), the TGI is greater than 1 µM in [1]; greater than 1 µM in [2]; greater than 1 µM in [3]; greater than 1 µM in [4]; greater than 1 µM in assay [5]; greater than 0.879 µM in assay [7]. The TGI was 0.417 µM in assay [8], greater than 1 µM in assay [9] and greater than 1 µM in [10].

In the case of `CC(C)NC(=O)OCc1c(COC(=O)NC(C)C)n(C)c2c1ccc1cc(Cl)c(Cl)cc12`, the TGI was 30.6 µM in assay [1]; 95.7 µM in assay [2]; 23.5 µM in [3]; 41.9 µM in assay [4]; greater than 100 µM in assay [5]; 27.1 µM in assay [6]. For the same compound, the TGI is 19.5 µM in assay [7], 13.1 µM in [8], 26.6 µM in assay [9] and 28.4 µM in [10].

`CC(=O)OC1COC(N2c3ccccc3[C@@H]3CCc4c([nH]c5ccccc45)[C@@H]32)C(OC(C)=O)C1OC(C)=O` (mixture of isomers): the TGI in assay [1], in assay [2], in [3], in assay [4], in [7] and in assay [8] was greater than 100 µM each time. Further, the TGI in assay [9] and in assay [10] was greater than 100 µM throughout.
